Values of other authors as cited in US7972815B2, “Method of producing sugar chain using human G4 polypeptide” (Kyowa Hakko Kirin Co., Ltd., priority 1999, dated 2011).
Like-named read-outs stand apart in the source and are kept apart here.

Biological target: T1, β3GnT (Homo sapiens, UniProt Q9NY97)
T1 sequence (Q9NY97 1-397): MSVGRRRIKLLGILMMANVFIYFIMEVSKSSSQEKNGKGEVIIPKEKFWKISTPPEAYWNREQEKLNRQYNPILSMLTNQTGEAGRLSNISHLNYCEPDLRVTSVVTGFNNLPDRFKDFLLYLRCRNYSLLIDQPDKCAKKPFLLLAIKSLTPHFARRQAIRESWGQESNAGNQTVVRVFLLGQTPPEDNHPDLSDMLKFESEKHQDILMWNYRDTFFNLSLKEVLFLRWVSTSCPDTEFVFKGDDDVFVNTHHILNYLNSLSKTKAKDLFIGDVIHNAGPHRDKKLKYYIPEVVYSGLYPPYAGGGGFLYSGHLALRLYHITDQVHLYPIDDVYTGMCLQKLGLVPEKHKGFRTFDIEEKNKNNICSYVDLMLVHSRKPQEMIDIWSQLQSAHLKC
Settings: reported values, Proc. Natl. Acad. Sci. USA, 96, 406 (1999), cited from earlier work

| Structure (SMILES) | Relative activity (%) β3GnT (Table 4) | Relative activity (%) β3GnT (Table 6) |
| --- | --- | --- |
| CC(=O)N[C@H]1[C@H](O[C@H]2[C@@H](O)[C@@H](CO)O[C@@H](O[C@H]3[C@H](O)[C@@H](O)C(O)O[C@@H]3CO)[C@@H]2O)O[C@H](CO)[C@@H](O[C@@H]2O[C@H](CO)[C@H](O)[C@H](O)[C@H]2O)[C@@H]1O (mixture of isomers) [LNnT, lacto-N-neotetraose] | 100% | 100% |
| CC(=O)N[C@H]1[C@H](O[C@H]2[C@@H](O)[C@@H](CO)O[C@@H](O[C@H]3[C@H](O)[C@@H](O)C(O)O[C@@H]3CO)[C@@H]2O)O[C@H](CO)[C@@H](O)[C@@H]1O[C@@H]1O[C@H](CO)[C@H](O)[C@H](O)[C@H]1O (stereo partly shown) [LNT, lacto-N-tetraose] | 6% | 6% |
